# Measured values published in patent US10772827B2, “Composition for treating apoplexy through nasal administration” (INDUSTRY-UNIVERSITY COOPERATION FOUNDATION HANYANG …, priority 2015, dated 2020).
# Where no end group is shown, it is not given here.
# B1: scrambled peptide (Scr-FTP) (peptide)
# peptide: YCNSTVCY
# modifications: cysteine pairing not given here; also: Alexa488 label in binding assays, site not given here
# notes: also called scrambled-FTP; Scr-A488
# How the values were obtained:
# [1] = rat, in vivo
# Description: Intranasal administration of peptides was performed using a pressurized olfactory delivery (POD) device (Impel Neuropharma). Briefly, rats were kept in an isoflurane chamber containing 5% isoflurane for 3 minutes. After the animals were deeply anesthetized, the rats were placed in a supine position for drug injection. A POD tip (Impel Neuropharma) was carefully inserted into a nostril, and then a prefilled 25 μl catheter tube was slowly inserted appropriately 2 cm into the nostril. Thereafter, a peptide solution (PBS) (15 μl of PBS and 500 nM peptide) was slowly injected thereinto. A total of 700 μg of the FTP peptide was intranasally injected 12 hours after MCAO. After intranasal administration, the rats were maintained in the supine position for 5 minutes before they kept back to their designated cage.
# A total of 500 μg of FTP was conjugated with Alexa-488 according to the manufacturer's guidelines (Molecular probes, Life Technologies). The Alexa^488 conjugated short peptide was intranasally injected with a final volume of 25 μl into each nostril using a POD device 12 hours after MCAO. After a predetermined period of time, the animals were sacrificed and tissues were excised therefrom. The tissues were washed with cold PBS and surface meninges were removed to avoid auto-fluorescence.
# Fas [2] = target: T1, Fas (Mus musculus, UniProt P25446); experiment: FTP binding to Fas-expressing hypoxic Neuro2a cells (flow cytometry, confocal microscopy); conditions: for binding to Fas-expressing hypoxic cells: hypoxic Neuro2a cells (OGD 24 h)
# T1 construct: Neuro2a cells were cultured in an oxygen glucose deprivation (OGD) medium for 24 hour under hypoxic conditions to induce Fas expression; endogenous in cells; host or cells: Neuro2a (mouse neuroblastoma, ATCC), hypoxia/OGD-induced
# T1 sequence (P25446 22-327): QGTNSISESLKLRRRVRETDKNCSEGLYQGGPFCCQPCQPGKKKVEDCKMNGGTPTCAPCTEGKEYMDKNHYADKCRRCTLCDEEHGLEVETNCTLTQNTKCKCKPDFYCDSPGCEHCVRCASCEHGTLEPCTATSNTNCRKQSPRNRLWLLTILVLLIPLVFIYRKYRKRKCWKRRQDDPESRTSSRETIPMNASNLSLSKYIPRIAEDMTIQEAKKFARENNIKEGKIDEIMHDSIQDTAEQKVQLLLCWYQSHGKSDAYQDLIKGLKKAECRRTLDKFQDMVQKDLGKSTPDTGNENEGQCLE
# Description: (§1) Mouse neuroblastoma (Neuro2a, N2a) cells were obtained from ATCC and cultured in Dulbecco's Modified Eagle's Medium (DMEM) containing 10% fetal bovine serum (FBS), penicillin (100 IU/ml), and streptomycin (100 μg/ml). To duplicate an ischemia/reperfusion environment in vitro, the Neuro2a cells were cultured in a 6-well plate and maintained under a hypoxic condition (94% N2, 5% CO2, and 1% O2) in an oxygen glucose deprivation (OGD) medium (Life Technologies) for 24 hours. Subsequently, the cells were re-oxygenated in DMEM supplemented with 10% FBS (5% CO2, 20% O2, 37° C.) for 24 hours.
# To identify co-localization of a FTP and a Fas receptor, Neuro2a cells were seeded on a cover slip and maintained under a hypoxic condition in an OGD medium for 24 hours. After incubating for 24 hours, the cells were treated with PBS containing 1% BSA and 0.05% Tween 20 and blocked at 37° C. for 2 hours, followed by staining with an anti-Fas antibody (Abcam) and an Alexa647-conjugated FTP at 4° C. for 2 hours. After incubating for 2 hours, the cells were washed three times with PBS containing 0.05% Tween 20, and stained with a secondary antibody (Abcam) at 4° C. for 2 hours under a dark condition. Nuclei of the cells were counterstained with Hoechst 33342 and fixed with an aqueous mounting solution (Abcam). Fluorescence signals in the cells were obtained using a TSP-SP5 confocal microscope (Leika, Germany).
# [3] = tested on: hypoxia-induced Neuro2a cells; experiment: Inhibition of in vitro Fas-mediated apoptosis (PE Annexin V / 7-AAD flow cytometry); type: cell-based, mouse
# Description: Mouse neuroblastoma (Neuro2a, N2a) cells were obtained from ATCC and cultured in Dulbecco's Modified Eagle's Medium (DMEM) containing 10% fetal bovine serum (FBS), penicillin (100 IU/ml), and streptomycin (100 μg/ml). To duplicate an ischemia/reperfusion environment in vitro, the Neuro2a cells were cultured in a 6-well plate and maintained under a hypoxic condition (94% N2, 5% CO2, and 1% O2) in an oxygen glucose deprivation (OGD) medium (Life Technologies) for 24 hours. Subsequently, the cells were re-oxygenated in DMEM supplemented with 10% FBS (5% CO2, 20% O2, 37° C.) for 24 hours. To examine an inhibitory effect of a FTP, hypoxia-induced Neuro2a cells were treated with 1,000 μM of a FTP. After incubating for 24 hours, the cells were stained using a PE Annexin V apoptosis detection kit (BD Pharmingen™) according to the manufacturer's instructions.
# MCAO rats [4] = experiment: Kaplan-Meier survival of MCAO rats; type: in vivo, rat; conditions: for animals survived: intranasal delivery; for rats that died over time: of the 18 rats per group, day 1 until day 5 after reperfusion, FIG. 4H
# Description: (§2) Briefly, animals were anesthetized with 5% isoflurane. […] Thereafter, the CCA was completely occluded using a clip.
# The survival rate of each group of animals was evaluated using a previously described method^[3].
# MCAO rats [5] = experiment: H&E histology of the brain of MCAO rats; type: in vivo, rat; conditions: FTP-inoculated group, day 1 to day 5 after reperfusion, FIG. 4F
# Description: as §2
# Paraffin-embedded brain sections were de-paraffinized, rehydrated and then subjected to H&E staining according to standard protocols. The H&E stained sections were covered with cover slips and roughly analyzed using an optical microscope.
# MCAO rats [6] = experiment: TUNEL analysis of apoptosis in brain sections of MCAO rats; type: in vivo, rat; conditions: intranasal FTP, FIG. 4G
# Description: as §2
# A extent of apoptosis in de-paraffinized and rehydrated brain sections was analyzed through TUNEL analysis using an In Situ Cell Death Detection Kit (Roche, Germany) according to the manufacturer's instructions.
# MCAO rats [7] = experiment: Neurological evaluation (deficit grade 0-4) of MCAO rats; type: in vivo, rat
# Description: as §2
# The neurological deficits of each group of rats with or without peptide treatment were evaluated using a commonly known method^[2]. […] Next, the animals were placed on absorbent pads and tails thereof were pulled to examine their grips power. […] The rats were placed in a sufficiently wide space and allowed to move freely. Grade 3 was given for the case in which rats moved in a circle towards the paralyzed side when tails thereof were pulled. Grade 4 was given for the case in which rats spontaneously moved in a circle under a free environment.
# Fas [8] = target: T1, Fas; experiment: Competition assay of a Fas antibody and a FTP on hypoxic Neuro2a cells; type: binding; conditions: FIG. 1C
# Description: FIG. 1C illustrates the results of a competition assay of a Fas antibody and a FTP, wherein the representative histograms show binding of a Fas antibody to hypoxic cells after treatment with a FTP; data is expressed as mean±SD of three replicated experiments; **P<0.01, ***P<0.001; Normoxia represents cells maintained under normal culture conditions, and Hypoxia represents cells cultured in an OGD medium for 24 hours, followed by re-oxygenation in a serum-containing DMEM medium for 24 hours; and FTP: Fas targeting peptide, Scr-FTP: scrambled peptide.
# [9] = tested on: cleaved caspase-8 and caspase-3; experiment: Western blotting of cleaved caspase-8 and caspase-3 in hypoxic Neuro2a cells; type: cell-based, mouse
# Description: as §1
# Neuro2a cells were lysed using a RIPA lysis buffer in the presence of […] phenylmethylsulfonyl fluoride (PMSF) as a protease inhibitor. A total of 50 μg of protein was loaded in a 12% SDS-PAGE gel and transferred onto a nitrocellulose transfer membrane (Whatman). Blots were blocked with 5% skim milk in TBST at room temperature for 2 hours and incubated at 4° C. with primary antibodies (Abcam). After a predetermined period of time, the blots were washed with TBST and incubated for 2 hours with secondary polyclonal antibodies coupled with HRP. After washing the blots three times with TBST, the blots were developed using an ECL western blotting substrate (Promega).
# MCAO rats [10] = experiment: TTC staining and measurement of infarct volume in MCAO rats; type: in vivo, rat; conditions: 15 mmol I.N. 12 hours after reperfusion
# Description: as §2
# After a predetermined period of treatment, the brain was immediately removed. The expected area of damage in the brain was sliced into 3 slices (2 mm thick) including a brain matrix and then incubated in 2% 2,3,5-triphenyltetrazolium chloride (TTC, Sigma) at 37° C. for 10 minutes. The brain slices were then fixed in 4% paraformaldehyde and kept at 4° C. for 24 hours until imaging and photographing. The infarct volume was measured using Image J developed by the U.S. National Institute of Health (NIH) and calculated as commonly known.
# [11] = target: T2, Fas on hypoxic mouse neuroblastoma Neuro2a cells (mouse, UniProt P25446 22-327); experiment: flow cytometry, Alexa488-labeled peptide on hypoxic Neuro2a cells
# T2 construct: whole, on cells; also called Fas receptor; Fas-expressing hypoxic cells
# T2 sequence (looked up): T1 sequence (P25446 22-327)
# [12] = fluorescence-labeled peptide, FIG. 1B
# [13] = hypoxic Neuro2a cells, 1,000 μM FTP, FIG. 2B
molecule,measurement,setting,value
"FTP-A^488: FTP conjugated with Alexa-488 for bio-distribution (YCDEHFCY; cysteine pairing not given here; also: conjugated with Alexa-488, position not given here)",fluorescence signal in other organs,[1],no signal was found
same,fluorescence signal in the lungs,[1],slight fluorescence signal
same,localization of labeled peptide in the brain,[1],localization of labeled peptides occurred
same,retention of labeled peptide in the brain,[1],maintained in the brains of MCAO-treated rats
"Scr-A^488: scrambled peptide labeled with Alexa^488 (YCNSTVCY; cysteine pairing not given here; also: labeled with Alexa-488, position not given here) [reference compound]","fluorescence exposure in the liver and kidneys, Scr-A^488 group versus FTP-A^488 group",[1],much more
same,fluorescence signal in other organs,[1],no signal was found
same,fluorescence signal in the lungs,[1],slight fluorescence signal
same,localization of labeled peptide in the brain,[1],strong localization
same,retention of labeled peptide in the brain,[1],not maintained
YCDEHFCY [FTP],binding to Fas-expressing hypoxic cells,Fas [2]; [12],only bound to the Fas-expressing hypoxic cells
same,binding to normal cells,"Fas [2]; fluorescence-labeled peptide, normal (normoxic) Neuro2a cells, FIG. 1B",die not bind to normal cells
same,"engagement to Fas-expressing cells, confocal microscopic images","Fas [2]; hypoxic Neuro2a cells, FIG. 2A",strongly engaged to the Fas-expressing cells
same,decrease of annexin V positive cells,[3]; [13],~50%
same,decrease of annexin V/7-ADD positive cells,[3]; [13],~50%
same,decrease in 7-AAD positive cells,"[3]; hypoxic Neuro2a cells, after FTP treatment",any significant decrease was not observed
same,animals survived,MCAO rats [4]; first of three values printed for 1 to 5 days after reperfusion,90%
same,animals survived,MCAO rats [4]; second of three values printed for 1 to 5 days after reperfusion,80%
same,animals survived,MCAO rats [4]; third of three values printed for 1 to 5 days after reperfusion,80%
same,rats that died over time,MCAO rats [4],2 rats
same,interstitial edema and pyknotic nuclei,MCAO rats [5],started to reduce on day 1 after reperfusion and were alleviated on day 5 thereafter
same,number of apoptotic cells (TUNEL positive cells),MCAO rats [6]; day 1 after reperfusion,26%
same,number of apoptotic cells (TUNEL positive cells),MCAO rats [6]; day 5 after reperfusion,9%
same,neurological deficits score compared to the saline-treated group,MCAO rats [7]; FIG. 4I,improved
same,"neurological functions, average grade","MCAO rats [7]; grade 0-4, first of four values between day 1 and day 5 after reperfusion",3.3
same,"neurological functions, average grade","MCAO rats [7]; grade 0-4, fourth of four values between day 1 and day 5 after reperfusion",1.3
same,"neurological functions, average grade","MCAO rats [7]; grade 0-4, second of four values between day 1 and day 5 after reperfusion",2.3
same,"neurological functions, average grade","MCAO rats [7]; grade 0-4, third of four values between day 1 and day 5 after reperfusion",2.3
same,competitive assay between FTP and α-Fas antibody,Fas [8],bound to different regions of a Fas molecule
same,decrease of cleaved caspase-3,[9]; FIG. 2C,40%
same,decrease of cleaved caspase-8,[9]; FIG. 2C,~50%
same,expression of activated cleaved caspase-8 and activated caspase-3 according to concentration,"[9]; no dramatic change at full-length enzyme level, FIG. 3",decreased in a dose-dependent manner
same,size of the infarcted area compared to Mock (PBS)- or Scr-FTP-treatment,MCAO rats [10]; as early as day 1 after MCAO,significantly reduced the size of the infarcted area
same,infarct volume,MCAO rats [10]; day 1,26%
same,infarct volume,MCAO rats [10]; day 2,29%
same,infarct volume,MCAO rats [10]; day 3,18%
same,infarct volume,MCAO rats [10]; day 5,7%
same,recovery from the infarct,MCAO rats [10]; day 5 after reperfusion,almost completely recovered
"YCNSTVCY [ScrFTP, scrambled peptide used as a control peptide, reference compound]",binding to Fas-expressing hypoxic cells,Fas [2]; [12],did not bind to the hypoxic cells
same,rats that died over time,MCAO rats [4],11 rats
same,progressive effect on behavior after MCAO,MCAO rats [7]; between day 1 and day 5,worsened
same,decrease of cleaved caspase-8,[9]; FIG. 2C,did not decrease cleaved caspase 8
B1,binding result,[11],no binding
